Data on 23 molecules can be found in article PMC5870887 (Bioorganic & medicinal chemistry letters, 2018).

Molecules are shown by their SMILES.

The target of the first experiment is recombinant α-synuclein fibrils (Homo sapiens, UniProt P37840). Nature of the experiment: Thioflavin T competitive binding fluorescence assay. Particulars: Thioflavin T assay Ki, mean ± SD, at least three experiments, NB = no binding was measurable (concentrations up to 10 μM).
Regarding `COc1cc(-c2nc(-c3ccc4cc(OCCF)ccc4n3)no2)ccn1` [Compound 28, 3-(6-(2-Fluoroethoxy)quinolin-2-yl)-5-(2-methoxypyridin-4-yl)-1,2,4-oxadiazole], the Ki amounted to 0.015 ± 0.003 µM. Still for that read-out and setting: the value for `COc1ccc2nc(/C=C/c3ccccc3)ccc2c1` [Compound 2, (E)-6-Methoxy-2-styrylquinoline] was 0.192 ± 0.001 µM; that for `COc1ccc2ccc(/C=C/c3ccccc3)nc2c1` [Compound 3, (E)-7-methoxy-2-styrylquinoline] was 0.68 ± 0.139 µM.

The same experiment, now with this note: mean ± SD, at least three experiments, NB = no binding was measurable (concentrations up to 10 μM).
For the molecule `COc1ccc2nc(/C=C/c3ccncc3Cl)ccc2c1` [Compound 15, (E)-2-(2-(3-Chloropyridin-4-yl)vinyl)-6-methoxyquinoline], the “Thioflavin T assay Ki” value is given as “no binding”.

With `COc1ccc2nc(/C=C/c3ccncc3Br)ccc2c1` [Compound 16, (E)-2-(2-(3-Bromopyridin-4-yl)vinyl)-6-methoxyquinoline], the “Thioflavin T assay Ki” value is “moderate binding”. Same read-out and setting: the value for `COc1cccc2ccc(/C=C/c3ccccc3)nc12` [Compound 4, (E)-8-Methoxy-2-styrylquinoline] was “no binding”; that for `COc1cccc2nc(/C=C/c3ccccc3)ccc12` [Compound 1, (E)-5-Methoxy-2-styrylquinoline] was “no binding”; that for `COc1ccc2nc(/C=C/c3ccnc(F)c3)ccc2c1` [Compound 11, (E)-2-(2-(2-Fluoropyridin-4-yl)vinyl)-6-methoxyquinoline] was “no binding”.

The experiment is the same for the next values; noted with them: read-out: Thioflavin T assay Ki, mean ± SD, at least three experiments, NB = no binding was measurable (concentrations up to 10 μM).
For `COc1ccc2nc(/C=C/c3ccnc(OC)c3)ccc2c1` [Compound 13, (E)-6-Methoxy-2-(2-(2-methoxypyridin-4-yl)vinyl)quinolone], the Ki turned out to be 0.052 ± 0.021 µM.

In the case of `COCOc1ccc2nc(-c3noc(-c4ccn5ccnc5c4)n3)ccc2c1` [Compound 34, 5-(Imidazo[1,2-a]pyridin-7-yl)-3-(6-(methoxymethoxy)-quinolin-2-yl)-1,2,4-oxadiazole], the Ki was over 10 µM. Same read-out and setting: next, `COc1cccc2ccc(/C=C/c3ccncc3)nc12` [Compound 10, (E)-8-Methoxy-2-(2-(pyridin-4-yl)vinyl)quinolone]: over 10 µM.

In the case of `COc1ccc2ccc(/C=C/c3ccncc3)nc2c1` [Compound 9, (E)-7-Methoxy-2-(2-(pyridin-4-yl)vinyl)quinolone], the Ki is over 10 µM. Still for that read-out and setting: the value for `COc1cc(-c2nc(-c3ccc4cc(OC(C)C)ccc4n3)no2)ccn1` [Compound 30, 3-(6-Isopropoxyquinolin-2-yl)-5-(2-methoxypyridin-4-yl)-1,2,4-oxadiazole] was over 10 µM; that for `COc1ccc2nc(/C=C/c3ccncc3Cl)ccc2c1` [Compound 15, (E)-2-(2-(3-Chloropyridin-4-yl)vinyl)-6-methoxyquinoline] was over 10 µM; that for `COc1cc(/C=C/c2ccc3cc(OCCF)ccc3n2)ccn1` [Compound 14, (E)-6-(2-Fluoroethoxy)-2-(2-(2-methoxypyridin-4-yl)vinyl)quinolone] was 0.018 ± 0.001 µM. Same read-out and setting: next, `COCOc1ccc2nc(-c3noc(-c4ccnc(OC)c4)n3)ccc2c1` [Compound 29, 3-(6-(Methoxymethoxy)quinolin-2-yl)-5-(2-methoxypyridin-4-yl)-1,2,4-oxadiazole]: over 10 µM; `COc1cccc2ccc(/C=C/c3ccccc3)nc12` [Compound 4, (E)-8-Methoxy-2-styrylquinoline]: over 10 µM. Same read-out and setting: next, `COc1cc2ccccc2nc1/C=C/c1ccncc1` [Compound 5, (E)-3-Methoxy-2-(2-(pyridin-4-yl)vinyl)quinolone]: over 10 µM; `COc1cc(/C=C/c2ccncc2)nc2ccccc12` [Compound 6, (E)-4-Methoxy-2-(2-(pyridin-4-yl)vinyl)quinolone]: over 10 µM. For `COc1ccc2nc(-c3noc(-c4cccnc4)n3)ccc2c1` [Compound 26, 3-(6-Methoxyquinolin-2-yl)-5-(pyridin-3-yl)-1,2,4-oxadiazole], the Ki is over 10 µM. The same measure, in the same setting: next, `COc1ccc2nc(-c3noc(-c4ccn5ccnc5c4)n3)ccc2c1` [Compound 31, 5-(Imidazo[1,2-a]pyridin-7-yl)-3-(6-methoxyquinolin-2-yl)-1,2,4-oxadiazole]: over 10 µM; `COc1cccc2nc(/C=C/c3ccncc3)ccc12` [Compound 7, (E)-5-Methoxy-2-(2-(pyridin-4-yl)vinyl)quinolone]: 0.056 ± 0.04 µM. On the same count and under the same terms, the value for `COc1cccc2nc(/C=C/c3ccccc3)ccc12` [Compound 1, (E)-5-Methoxy-2-styrylquinoline] was over 10 µM; that for `CC(C)Oc1ccc2nc(-c3noc(-c4ccn5ccnc5c4)n3)ccc2c1` [Compound 32, 5-(Imidazo[1,2-a]pyridin-7-yl)-3-(6-isopropoxyquinolin-2-yl)-1,2,4-oxadiazole] was over 10 µM; that for `COc1ccc2nc(/C=C/c3ccncc3)ccc2c1` [Compound 8, (E)-6-Methoxy-2-(2-(pyridin-4-yl)vinyl)quinolone] was 0.052 ± 0.038 µM. With `COc1ccc2nc(/C=C/c3ccnc(F)c3)ccc2c1` [Compound 11, (E)-2-(2-(2-Fluoropyridin-4-yl)vinyl)-6-methoxyquinoline], the Ki was over 10 µM.

As for `FCCOc1ccc2nc(-c3noc(-c4ccn5ccnc5c4)n3)ccc2c1` [Compound 33, 3-(6-(2-Fluoroethoxy)quinolin-2-yl)-5-(imidazo[1,2-a]pyridin-7-yl)-1,2,4-oxadiazole], the Ki is over 10 µM.
